Source: US8664400B2, “Triphenylamine derivatives useful as fluorophores in biology, in particular for two-photon microscopy” (Centre National de la Recherche Scientifique, priority 2006, dated 2014)
Where two headings read alike, the source gives them in different places.

Columns and labels:
[1] = Emission and single-photon absorption properties in glycerol or sodium cacodylate buffer; assay type: physicochemical
[2] = system: duplex DNA of 26 base pairs of self-complementary sequence (ds26); experiment: Single-photon absorption and fluorescence emission in the presence of DNA; assay type: binding; conditions: for ΦF (quantum fluorescence yield) / ε / λabs. / λem.: DNA
ds26 DNA = experiment: Affinity for DNA by fluorometric titration; assay type: binding; conditions: 10 mM sodium cacodylate buffer, pH 7.0, 100 mM NaCl
[3] = Two-photon absorption by two-photon-induced fluorescence (TPIF); assay type: physicochemical
Description: (§1) The two-photon absorption properties of the compounds according to the invention were assessed using the two-photon-induced fluorescence (TPIF) technique and by means of a Titanium:Sapphire femtosecond laser source with pulses of 90 fs to 76 MHz which can be tuned to 750-840 nm.

herring testis DNA = experiment: Two-photon absorption (TPIF) in the presence of DNA; assay type: physicochemical; conditions: for two-photon spectra in presence of DNA compared with glycerol: sodium cacodylate buffer 10 mM, pH 7.3, 5 equivalents herring testis DNA, all excitation wavelengths
Description: as §1

[4] = Photostability under irradiation with a 150 W xenon-mercury lamp; assay type: physicochemical; conditions: about thirty minutes
[5] = 36 μM, 20° C.; cited from earlier work
[6] = according to the literature; cited from earlier work
CHO K1 cells = experiment: Epifluorescence and confocal microscopy of fixed, treated cells; assay type: cell-based, Chinese hamster
Description: The CHO-K1 cells, cultured beforehand in wells, on glass supports coated with polyornithine, containing a commercially available standard culture medium, were fixed using a formaldehyde (4%) solution in PBS.
The cells were then incubated, at room temperature and for 20 minutes, in the presence of the markers or mixtures of markers to be tested (in aqueous solution) and then washed with PBS buffer (13 mM NaCl, 0.27 mM KCl, 0.15 mM KH2PO4, 0.8 mM Na2HPO4, pH 7.4) in order to remove the excess marker. […] The cells were then prepared conventionally for microscopic examination.
Epifluorescence microscopy examinations were carried out with a Nikon Eclipse E 800 microscope fitted with a 60× (1.4) lens and a Nikon DXM 1200 digital apparatus, while the confocal microscopy examinations were carried out with a Leica DM6000 microscope comprising an SP2 unit equipped with a 63× (1.4) lens and an HeNe laser for excitation of the markers.

[7] = 10 mM sodium cacodylate, pH 7.0, 5 μM compound, 0.5 to 5 equivalents ds26

Compound	ε ([1]; Na cacodyl.)	λabs. ([1]; Na cacodyl.)	ΦF (quantum fluorescence yield) ([1]; glyc.)	ε ([1]; glyc.)	λabs. ([1]; glyc.)	λem. ([1]; glyc.)	hypochromism caused by the presence of DNA [2, 7]	ΦF (quantum fluorescence yield) [2]	ε [2]	λabs. [2]	λem. [2]	two-photon spectra in presence of DNA compared with glycerol (herring testis DNA)	also measured
C[n+]1ccc(C=Cc2ccc(N(c3ccccc3)c3ccc(C=Cc4cc[n+](C)cc4)cc3)cc2)cc1.[I-].[I-] [TP-2Py, Bis[4-(2-N-methylpyridinium-4-ylvinyl)phenyl]phenylamine iodide]	39 800 L/mol · cm	474 nm	0.112	37 400 L/mol · cm	491 nm	656 nm	about 20%	0.07	31 400 L/mol · cm	509 nm	665 nm	identical to those previously observed in glycerol	molar extinction coefficient (ε) ([1]; in glycerol, at 474 nm): 37 400 L/mol·cm; shift of absorption spectra caused by the presence of DNA [2, 7]: shift towards the red region; dissociation constant Kd (ds26 DNA): of the order of the micromolar; δ (efficient two-photon absorption section) ([3]; glyc.): 315 GM; wavelength of relative maximum of two-photon absorption ([3]; in glycerol): ~820 nm; δ (efficient two-photon absorption section) (herring testis DNA; DNA): 200 GM
CN1C(=CC=Cc2cc[n+](CCC[N+](C)(C)C)c3ccccc23)Sc2ccccc21.[I-].[I-] [TO-PRO-3, 1-(N,N,N-trimethylaminopropyl)-4-{2-[3-methyl-2,3-dihydro-(benzo-1,3-thiazole)-2-ethylidene]vinyl}quinolinium iodide, reference compound]	–	–	–	–	–	–	–	–	–	–	–	–	decrease of fluorescence emission during irradiation [4]: more than 40%
CN1C(=Cc2cc[n+](C)c3ccccc23)Sc2ccccc21 [thiazole orange]	–	–	–	–	–	–	–	–	–	–	–	–	form in aqueous medium (aggregation) [5]: in the form of dimers
C(=Cc1ccc(N(c2ccc(C=Cc3ccncc3)cc2)c2ccc(C=Cc3ccncc3)cc2)cc1)c1ccncc1 [tris[4-(2-pyridin-4-ylvinyl)phenyl]amine, reference compound]	–	–	–	–	–	–	–	–	–	–	–	–	two-photon excitation maximum ([3]; in dichloromethane): around 820 nm; efficient two-photon absorption section ([3]; measurements performed by the Inventors, in dichloromethane): 90 GM; efficient two-photon absorption section [6]: 58 GM
C[n+]1ccc(C=Cc2ccc(N(c3ccc(C=Cc4cc[n+](C)cc4)cc3)c3ccc(C=Cc4cc[n+](C)cc4)cc3)cc2)cc1.[I-].[I-].[I-] [TP-3Py, Tris[4-(2-N-methylpyridinium-4-ylvinyl)phenyl]amine iodide]	59 000 L/mol · cm	474 nm	0.123	66 000 L/mol · cm	491 nm	665 nm	about 20%	0.021	51 000 L/mol · cm	499 nm	684 nm	identical to those previously observed in glycerol	effect of irradiation on fluorescence emission [4]: scarcely modified; image quality of chromosomes (CHO K1 cells; CHO K1 cells in mitosis, 2 μM, phase contrast and confocal microscopies coupled): very high degree of sharpness and a high resolution; location of fluorescence in cells (CHO K1 cells; fixed CHO K1 cells, 2 μM compound with DAPI 3 μM, 20 minutes, epifluorescence microscopy): located exclusively in the nucleus; stability at the focal point of the microscope lens (CHO K1 cells; fixed CHO K1 cells, 2 μM, epifluorescence microscopy): very stable
